Patent publication US20150320700A1, “Geranium oil and constituents thereof for treatment of neurodegenerative diseases” (The State of Israel, Ministry of Agriculture & Ru ral …, priority 2012, published 2015)
Structures can show the parent of a compound that is named as a salt.

Experiments:
[1] = target: T1, human erythrocytes' acetyl cholinesterase (Homo sapiens, UniProt P22303); assay: acetyl cholinesterase fluorescent activity assay; assay type: biochemical; conditions: human erythrocytes' acetyl cholinesterase 25 mU/mL, FIGS. 2-4
T1 construct: from tissue; host or cells: human erythrocytes
Experimental: In this Example, Human erythrocytes acetyl cholinesterase (AChE) was incubated with different concentrations of geranium oil or each of its constituents.
In the results shown in FIG. 2, the different constituents were incubated with human erythrocytes' acetyl cholinesterase (25 mU/mL). The activity of acetyl cholinesterase was determined using a commercially available kit (acetyl cholinesterase fluorescent activity assay kit, Arbor assays).
Thus, inventors have tested the effect of both enantiomers on the enzymatic activity. […] The different enantiomers of citronellol were incubated with human erythrocytes' acetyl cholinesterase (25 mU/mL). The enzymatic activity was determined using a commercially available kit (acetyl cholinesterase fluorescent activity assay kit, Arbor assays).
In FIG. 4, different constituents of geranium oil (Geraniol, Citronellol (+) and Citronellol formate) were incubated with human erythrocytes' acetyl cholinesterase (25 mU/mL). The activity of acetyl cholinesterase was determined using a commercially available kit (acetyl cholinesterase fluorescent activity assay kit, Arbor assays).

primary microglial cells = assay: peroxyl radical-induced oxidation of DCFH (ROS) in primary microglial cells; assay type: cell-based; conditions: microglial cells incubated 1 h with compound; ABAP 0.6 mM; FIG. 1
Experimental: Microglial cells were incubated for one h with (S)(−)citronellol (FIG. 1A) and (R)(+)citronellol (FIG. 1B). Primary cultures of microglial cells has been prepared according to Elmann et al., Journal of Functional Foods 2 (2010), pp. 18. As in Elmann et al. BMC Complementary and Alternative Medicine 2011, 11:98, the cultures of microglial cells were then preloaded with the non-fluorescent cell permeating compound, 2′7′-dichlorofluorescein diacetate (DCF-DA) for 30 min and washed with PBS, after which, 2,2′-Azobis(amidinopropane) (ABAP) (0.6 mM) was added and ROS levels were measured at the indicated time points. Each point on the graph represents mean±SEM of 2 experiments (n=8).

T1 sequence (P22303 32-617 isoform P22303-2 limits assumed): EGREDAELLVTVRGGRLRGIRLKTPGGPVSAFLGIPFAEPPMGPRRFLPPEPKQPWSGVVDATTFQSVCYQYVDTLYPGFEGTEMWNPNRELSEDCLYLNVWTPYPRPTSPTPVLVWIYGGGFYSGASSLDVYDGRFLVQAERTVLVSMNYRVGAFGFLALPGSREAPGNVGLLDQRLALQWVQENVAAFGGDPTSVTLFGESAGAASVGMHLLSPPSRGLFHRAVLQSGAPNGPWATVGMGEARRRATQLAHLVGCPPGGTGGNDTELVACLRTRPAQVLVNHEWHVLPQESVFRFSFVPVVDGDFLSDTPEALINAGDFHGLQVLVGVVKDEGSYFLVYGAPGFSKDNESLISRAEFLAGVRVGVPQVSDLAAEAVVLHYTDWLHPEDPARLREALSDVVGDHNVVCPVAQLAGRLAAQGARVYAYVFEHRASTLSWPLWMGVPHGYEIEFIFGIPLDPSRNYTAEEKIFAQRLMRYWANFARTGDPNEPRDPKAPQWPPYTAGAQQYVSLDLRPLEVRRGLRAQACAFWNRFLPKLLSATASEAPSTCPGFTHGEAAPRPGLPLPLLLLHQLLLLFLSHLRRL

Row | SMILES | enzymatic activity of acetyl cholinesterase [1] | peroxyl radical-induced oxidation of DCFH (ROS levels) (primary microglial cells) | enzymatic activity of acetyl cholinesterase ([1]; listed as (S)(−)citronellol) | enzymatic activity of acetyl cholinesterase ([1]; listed as Citronellol (+))
1 | CC(C)=CCCC(C)CCOC=O (centres unmarked) [citronellol formate, reference compound] | none of the constituents geraniol, Citronellol (+) and citronellol formate could inhibit AChE activity | – | – | –
2 | C=CC(C)(O)CCC=C(C)C (centres unmarked) [linalool] | inhibited the enzymatic activity | – | – | –
3 | CC(C)[C@H]1CC[C@@H](C)CC1=O [isomenthone] | inhibited the enzymatic activity | – | – | –
4 | CC(C)=CCC[C@H](C)CCO [(S)(−)-citronellol] | inhibited the enzymatic activity | inhibit the peroxyl radical-induced oxidation of DCFH | could inhibit the enzymatic activity | –
5 | CC(C)=CCC/C(C)=C/CO [geraniol, reference compound] | none of the constituents geraniol, Citronellol (+) and citronellol formate could inhibit AChE activity | – | – | –
6 | CC(C)[C@@H]1CC[C@@H](C)CC1=O [menthone] | inhibited the enzymatic activity | – | – | –
7 | CC(C)=CCC[C@@H](C)CCO [(R)(+)citronellol, reference compound] | not (R)(+)citronellol could inhibit the enzymatic activity | inhibit the peroxyl radical-induced oxidation of DCFH | – | none of the constituents geraniol, Citronellol (+) and citronellol formate could inhibit AChE activity
